Laboratory results taken from the OPERA property sets (Mansouri et al. 2018).

Settings: not given

SMILES | boiling point | log10 Koc (L/kg) | melting point | log10 vapour pressure (mmHg) | ready biodegradability | log10 Koa | log10 Henry constant (atm·m³/mol) | log10 biodegradation half-life (days)
O=[N+]([O-])c1ccc(Br)cc1 | 256 °C | 2.42 | 127 °C |  |  |  |  | 
Cc1cc(O)c(C(C)(C)C)cc1C | 258 °C |  | 46 °C |  |  |  |  | 
CC(C)c1ccccc1Cl | 191 °C |  | -74.4 °C |  |  |  |  | 
O=C(OC(=O)C(Cl)(Cl)Cl)C(Cl)(Cl)Cl |  |  |  | -0.908 |  |  |  | 
CCCCCCC(C)CCC (stereo unspecified) | 187 °C |  | -77.5 °C |  |  |  |  | 
O=C1CCC(c2ccccc2)O1 (stereo unspecified) | 306 °C |  | 36.5 °C |  |  |  |  | 
CC=C(CC)C(=O)NC(N)=O |  |  | 198 °C |  |  |  |  | 
CO[C@H]1[C@H](O)[C@H](O[C@H]2CC[C@@]3(C=O)[C@H](CC[C@@H]4[C@@H]3CC[C@]3(C)[C@@H](C5=CC(=O)OC5)CC[C@]43O)C2)O[C@@H](C)[C@@H]1O |  |  | 162 °C |  |  |  |  | 
CC1=C(/C=C/C(C)=C/C=C/C(C)=C/C=O)C(C)(C)CC=C1 |  |  | 77.5 °C |  |  |  |  | 
O=S(=O)(O)c1ccc(O)cc1 |  |  |  |  | readily biodegradable |  |  | 
O=C(O)CC=Cc1ccccc1 | 302 °C |  | 87 °C |  |  |  |  | 
FC1CCCCC1 | 101 °C |  | 13 °C |  |  |  |  | 
ClC1c2ccccc2CCc2ccccc21 |  |  | 106 °C |  |  |  |  | 
O=Cc1ccc(Cl)cc1Cl | 233 °C |  | 72 °C |  |  |  |  | 
CCCCCCCCCCCCCCCCO | 334 °C |  | 49.3 °C | -5.22 | readily biodegradable | 9.9 |  | 
CC(=O)CC(=O)Nc1ccccc1 |  |  | 86 °C | -4.28 | readily biodegradable |  |  | 
CCOC(=O)C(C(=O)OCC)c1ccccc1 |  |  | 16.5 °C |  |  |  |  | 
Fc1ccc(-c2ccccc2)cc1 | 253 °C |  | 74.2 °C |  |  |  |  | 
NS(=O)(=O)c1cc2c(cc1Cl)N=C(CSCc1ccccc1)NS2(=O)=O |  |  | 232 °C |  |  |  |  | 
O=C(NC(=O)c1c(F)cccc1F)Nc1ccc(CO/N=C(\c2ccc(Cl)cc2)C2CC2)cc1 |  |  | 144 °C |  |  |  |  | 
Cc1c(C)c([N+](=O)[O-])c(C)c(C)c1[N+](=O)[O-] |  |  | 212 °C |  |  |  |  | 
CC(C)CCOC(=O)c1ccccc1 | 261 °C |  |  | -0.848 |  |  |  | 

SMILES | boiling point | log10 Koc (L/kg) | melting point | log10 vapour pressure (mmHg) | ready biodegradability | log10 Koa | log10 Henry constant (atm·m³/mol) | log10 biodegradation half-life (days)
Clc1ccc(Br)cc1Cl | 237 °C |  | 25 °C |  |  |  |  | 
CNC(=S)NC |  |  | 62 °C |  |  |  |  | 
O=C1OS(=O)(=O)c2ccccc21 |  |  | 130 °C |  |  |  |  | 
c1ccc(CN2CCCCC2)cc1 | 245 °C |  |  |  |  |  |  | 
c1ccc(-c2ncc[nH]2)cc1 | 340 °C |  | 149 °C |  |  |  |  | 
Brc1ccc2c(c1)Oc1ccccc1O2 |  |  | 90 °C | -4.52 |  |  |  | 
Cc1cccnc1 | 144 °C |  | -18.1 °C | 0.782 | not readily biodegradable |  | -5.11 | 
COC(=O)c1ccc(OC)c(OC)c1 | 283 °C |  | 60.8 °C |  |  |  |  | 
c1ccc2c(c1)ccc1c3ccccc3sc21 |  |  | 189 °C | -6.94 |  |  |  | 
CCN(CC)C(=O)SCc1ccccc1Cl |  |  | 9 °C | -4.03 |  |  |  | 
CCC(C)(C)CCC(C)C | 153 °C |  |  |  |  |  |  | 
COCC1CCCO1 (stereo unspecified) | 140 °C |  |  |  |  |  |  | 
CC1(C)OCC(CO)O1 (stereo unspecified) |  |  |  | 2.03 |  |  |  | 
CCC(C)=O |  |  | -86.6 °C | 1.96 | readily biodegradable | 2.71 | -4.24 | 
O=c1c(O)c(O)c(=O)c1=O |  |  | 150 °C |  |  |  |  | 
COc1c(O)c(Cl)c(Cl)c(Cl)c1Cl |  | 2.85 |  | -4.08 |  |  |  | 
CC(=O)Oc1ccc(Cl)cc1Cl | 244 °C |  |  |  |  |  |  | 
N#CC(=O)c1ccccc1 | 206 °C |  | 32.5 °C |  |  |  |  | 
CC(=O)C1CCOC1=O (stereo unspecified) |  |  |  |  | readily biodegradable |  |  | 
O=C1CC(=O)NC(=S)N1 |  |  |  | -7.7 |  |  |  | 
CC1CCCSC1 (stereo unspecified) | 158 °C |  | -60 °C |  |  |  |  | 
CCN(CC)S(=O)(=O)c1ccc(C(=O)O)cc1 |  |  | 193 °C |  |  |  |  | 

SMILES | boiling point | log10 Koc (L/kg) | melting point | log10 vapour pressure (mmHg) | ready biodegradability | log10 Koa | log10 Henry constant (atm·m³/mol) | log10 biodegradation half-life (days)
C=C[C@H]1C[N@@]2CCC1C[C@H]2c1[nH]c2ccccc2c1CCO |  |  | 186 °C |  |  |  |  | 
CCc1cccc(CC)c1 | 181 °C |  | -83.9 °C | 0.0531 | not readily biodegradable |  |  | 0.845
N[C@@H](Cc1cc(I)c(O)c(I)c1)C(=O)O |  |  | 213 °C |  |  |  |  | 
C/C=C\C(=O)OC1C[C@H]2O[C@@H]3C=C(C)C(=O)C[C@]3(C)[C@]1(C)C21CO1 (stereo partly specified) |  |  | 118 °C |  |  |  |  | 
CC[C@H]1CN2CC[C@]3(C(=O)Nc4ccccc43)[C@@H]2C[C@@H]1/C(=C\OC)C(=O)OC |  |  | 216 °C |  |  |  |  | 
CCOc1cccc(F)c1 | 172 °C |  | -27.5 °C |  |  |  |  | 
Cc1cccc(C(C)c2ccccc2)c1C (stereo unspecified) |  |  |  |  | not readily biodegradable |  |  | 
CN[C@H](C)[C@@H](O)c1ccc(O)cc1 (racemic) |  |  | 153 °C |  |  |  |  | 
CCOC(=O)C1CC1 | 134 °C |  |  |  |  |  |  | 
CCC(C)(Cl)CCl (stereo unspecified) | 134 °C |  |  |  |  |  |  | 
CCC(=O)Cc1ccccc1 | 230 °C |  |  |  |  |  |  | 
FC(F)(Br)C(F)(F)C(F)(F)C(F)(F)Br | 97 °C |  |  |  |  |  |  | 
CC(C)=CCCC(C)CC(=O)O (stereo unspecified) |  |  | 257 °C |  |  |  |  | 
CCCCCCCCOC(=O)c1ccccc1C(=O)OCCCCCCCC(C)C | 447 °C |  | 98 °C |  |  |  |  | 
S=C(c1ccccc1)c1ccccc1 |  |  | 53.5 °C |  |  |  |  | 
O=[N+]([O-])c1cc(Cl)c(Cl)c(Cl)c1 |  |  | 72.5 °C |  |  |  |  | 
Cc1ccccc1[N+](=O)[O-] | 222 °C |  | -10 °C | -0.726 | not readily biodegradable |  | -4.9 | 
CCOC(=O)CC | 99.1 °C |  | -73.9 °C | 1.55 |  | 3.15 |  | 
FC(F)(F)C(F)(F)C(F)(F)C(F)(F)C(F)(F)C(F)(F)C(F)(F)C(F)(F)C(F)(F)C(F)(F)I | 195 °C |  | 66 °C |  |  |  |  | 
CCCCCCC(C=O)=Cc1ccccc1 |  |  | 39.2 °C |  |  |  |  | 
COc1cccc(C(=O)O)c1OC |  |  | 123 °C | -5.73 |  |  |  | 
COc1c(O)cc(Cl)c(Cl)c1Cl |  | 2.8 |  | -3.05 | not readily biodegradable |  |  | 

SMILES | boiling point | log10 Koc (L/kg) | melting point | log10 vapour pressure (mmHg) | ready biodegradability | log10 Koa | log10 Henry constant (atm·m³/mol) | log10 biodegradation half-life (days)
Brc1ccsc1Br | 218 °C |  | -17.5 °C |  |  |  |  | 
Nc1ccc(C(=O)c2ccccc2)cc1 |  |  | 122 °C |  |  |  |  | 
OCC(F)(F)C(F)(F)C(F)(F)C(F)(F)C(F)(F)C(F)F |  |  |  |  | not readily biodegradable |  |  | 
C[N+](C)(C)CCOC(Cc1ccccc1)c1ccccc1.[Br-] (stereo unspecified) |  |  | 146 °C |  |  |  |  | 
C[C@](N)(Cc1ccc(O)cc1)C(=O)O |  |  | 312 °C |  |  |  |  | 
CN(CCCN)CCCN | 232 °C |  |  |  |  |  |  | 
CCCCCOC(=O)CCCC | 204 °C |  | -78.8 °C |  |  |  |  | 
Cc1ccc2cccnc2c1 | 258 °C |  | 39 °C | -2.05 |  |  |  | 
CC(=O)Oc1cc(C(F)(F)F)ccc1C(=O)O |  |  | 121 °C |  |  |  |  | 
CCc1ccccc1 | 136 °C | 2.23 | -94.9 °C | 0.982 |  | 3.74 | -2.1 | 0.903
COCCC#N | 163 °C |  |  |  |  |  |  | 
OCC(Cl)Cl | 146 °C |  |  |  |  |  |  | 
Cc1cc(CC(C)CC(C)(C)C)n(O)c(=O)c1 (stereo unspecified) |  |  | 108 °C |  |  |  |  | 
Cl[Si](Cl)(c1ccccc1)c1ccccc1 | 305 °C |  |  |  | not readily biodegradable |  |  | 
CC(=O)Oc1c(C)cc(OCC(O)CNC(C)C)c(C)c1C (stereo unspecified) |  |  | 106 °C |  |  |  |  | 
CSC#N | 133 °C |  | -5 °C | 1.08 |  |  |  | 
C=CC(=O)OCC(CC)CCCC (stereo unspecified) | 214 °C |  | -90 °C | -0.75 | readily biodegradable |  |  | 
Cc1ccc(Br)cc1 | 184 °C |  | 28.5 °C | 0.0607 |  |  | -2.63 | 
COc1cc(NS(C)(=O)=O)ccc1Nc1c2ccccc2nc2ccccc12 |  |  | 235 °C |  |  |  |  | 
CC(=O)CCCC(C)C | 167 °C |  |  |  |  |  |  | 
CN(C)c1ccc(CO)cc1 |  |  | 69 °C |  |  |  |  | 
ClCCOc1ccccc1 | 218 °C |  | 28 °C |  |  |  |  | 

Same assay, conditions: fish

SMILES | log10 BCF | log10 biotransformation half-life (days)
COc1c(O)c(Cl)c(Cl)c(Cl)c1Cl | 3.08 | 
CCc1cccc(CC)c1 | 2.73 | 0.09
Cc1ccccc1[N+](=O)[O-] | 1.26 | -0.48
COc1c(O)cc(Cl)c(Cl)c1Cl | 2.41 | 0.11
